Reference: article PMC10611619, “[^99mTc]Tc-PentixaTec: development, extensive pre-clinical evaluation, and first human experience” (European Journal of Nuclear Medicine and Molecular Imaging, 2023)
Where a SMILES comes first, the peptide text is derived from it. Side-chain parts run from the residue outwards. [ ]: non-standard residue; d: D form. The star is where a group is joined. 2Nal = N[C@@H](Cc1ccc2ccccc2c1)C(=O)O; dNMeOrn = CN[C@H](CCCN)C(=O)O; 4Abz = Nc1ccc(C(=O)O)cc1; X1 = NCCNCC(CNCCN)C(=O)*; dDap = NC[C@@H](N)C(=O)O

Test: Patient radiation dosimetry (OLINDA/EXM, RADAR/MIRD)
Assay type: in vivo, human
Details: for Absorbed organ dose Adrenals / Absorbed organ dose Brain / Absorbed organ dose Breast / Absorbed organ dose Gallbladder wall / Absorbed organ dose Heart wall / Absorbed organ dose Kidneys / Absorbed organ dose LLI wall / Absorbed organ dose Liver / Absorbed organ dose Lungs / Absorbed organ dose Muscle / Absorbed organ dose Osteogenic cells / Absorbed organ dose Ovaries / Absorbed organ dose Pancreas / Absorbed organ dose Red marrow / Absorbed organ dose Skin / Absorbed organ dose Small intestine / Absorbed organ dose Spleen / Absorbed organ dose Stomach wall / Absorbed organ dose Testes / Absorbed organ dose Thymus / Absorbed organ dose Thyroid / Absorbed organ dose Total body / Absorbed organ dose ULI wall / Absorbed organ dose Urinary bladder wall / Absorbed organ dose Uterus: per 1 MBq
Description: Radiation dosimetry calculations were performed using the RADAR (Radiation Dose Assessment Resource) method as implemented in the OLINDA/EXM software and according to the recommendations of the Medical Internal Radiation Dose (MIRD) committee. The individual absorbed organ doses (ODs) and the effective doses (EDs) were corrected to consider the current tissue weighting factors of ICRP 103 [38]. For a detailed description of image analysis for dosimetry, please refer to the supplementary materials section.
The Xeleris^TM Dosimetry Toolkit (GE Healthcare, Milwaukee, USA) was used to perform full organ segmentation by an experienced user. This was performed manually on CT images of organs (kidneys, liver, spleen, heart, lungs, lumbar vertebrae 2-4) to define the regions and volumes of interest (VOIs) for gamma camera scans and SPECT analysis. Quantification of the activity in the VOIs was carried out as converting counts in the VOIs by a calibration factor to the average activity per milliliter and per organ.
The VOIs were transferred from SPECT/CT to the planar images. Additional ROIs for the whole body and a background region adjacent to the head were drawn on the planar images.
The VOIs were used to determine the masses of the individual organs. For the lungs, a density of 0.288 g/mL was used. For all organs not covered by any VOI, the uptake was summed as the contribution from the remainder of the body in the dose calculation.
The time-integrated activity coefficients of all contoured organs were determined using the hybrid planar/SPECT method. Thus, the shape of the time-activity curves were estimated based on the planar images using the NUKFIT software and then scaled to activity values using the SPECT/CT. The accumulated activity in the bone marrow was calculated using the activity in the lumbar vertebrae 2-4 with the assumption that these contain 6.7% of the red bone marrow.
Radiation dosimetry calculations were performed using the RADAR (Radiation Dose Assessment Resource) method as implemented in the OLINDA/EXM software and according to the recommendations of the Medical Internal Radiation Dose (MIRD) committee. The OLINDA/EXM application (version 1.0) was used to calculate the individual absorbed organ doses (ODs) and the effective doses (EDs) by using the time-integrated activity coefficients and the individual patients’ organ masses. A mass of 1500 g for the red bone marrow as assumed for all patients. The EDs were afterwards corrected to consider the current tissue weighting factors of ICRP 103 [16]. The absorbed OD and ED were evaluated for each patient and then averaged across all the patients.

C[C@@H](NC(=O)[C@@H](CCCNC(=N)N)NC(=O)[C@@H](CN)NC(=O)C(CNCCN)CNCCN)C(=O)Nc1ccc(C(=O)NCCC[C@@H]2C(=O)N[C@@H](CCCNC(=N)N)C(=O)N[C@@H](Cc3ccc4ccccc4c3)C(=O)NCC(=O)N[C@H](Cc3ccc(O)cc3)C(=O)N2C)cc1 [[^99mTc]Tc-N4-L6-CPCR4, [^99mTc]Tc-N4-dap-r-a-Abz-CPCR4, metal not drawn] (cyclo([dY][dNMeOrn]([4Abz-dA-dR-dDap-X1])R[2Nal]G))
absorbed dose bone marrow, median (four patients): 9.40E − 03 mGy/MBq
absorbed dose bone marrow, range (four patients): 6.2E − 03–13.50E − 03 mGy/MBq
absorbed dose kidneys, median (four patients): 1.23E − 02 mGy/MBq
absorbed dose kidneys, range (four patients): 0.94 E − 02–1.37E − 02 mGy/MBq
absorbed dose spleen, median (four patients): 1.95E − 02 mGy/MBq
absorbed dose spleen, range (four patients): 1.61E − 02–2.38E − 02 mGy/MBq
effective dose per unit of administered activity, median (four patients): 5.3E − 03 mSv/MBq
effective dose per unit of administered activity, range (four patients): 4.3E − 03–6.7E − 03 mSv/MBq
Absorbed organ dose Adrenals (Median): 0.0065 mGy
Absorbed organ dose Brain (Median): 0.0030 mGy
Absorbed organ dose Breast (Median): 0.0025 mGy
Absorbed organ dose Gallbladder wall (Median): 0.0060 mGy
Absorbed organ dose Heart wall (Median): 0.0044 mGy
Absorbed organ dose Kidneys (Median): 0.0123 mGy
Absorbed organ dose LLI wall (Median): 0.0048 mGy
Absorbed organ dose Liver (Median): 0.0077 mGy
Absorbed organ dose Lungs (Median): 0.0063 mGy
Absorbed organ dose Muscle (Median): 0.0035 mGy
Absorbed organ dose Osteogenic cells (Median): 0.0136 mGy
Absorbed organ dose Ovaries (Median): 0.0050 mGy
Absorbed organ dose Pancreas (Median): 0.0070 mGy
Absorbed organ dose Red marrow (Median): 0.0094 mGy
Absorbed organ dose Skin (Median): 0.0023 mGy
Absorbed organ dose Small intestine (Median): 0.0049 mGy
Absorbed organ dose Spleen (Median): 0.0195 mGy
Absorbed organ dose Stomach wall (Median): 0.0051 mGy
Absorbed organ dose Testes (Median): 0.0026 mGy
Absorbed organ dose Thymus (Median): 0.0036 mGy
Absorbed organ dose Thyroid (Median): 0.0033 mGy
Absorbed organ dose Total body (Median): 0.0037 mGy
Absorbed organ dose ULI wall (Median): 0.0049 mGy
Absorbed organ dose Urinary bladder wall (Median): 0.0041 mGy
Absorbed organ dose Uterus (Median): 0.0047 mGy
Absorbed organ dose Adrenals (Patient 1): 0.0053 mGy
Absorbed organ dose Brain (Patient 1): 0.0023 mGy
Absorbed organ dose Breast (Patient 1): 0.0021 mGy
Absorbed organ dose Gallbladder wall (Patient 1): 0.0051 mGy
Absorbed organ dose Heart wall (Patient 1): 0.0040 mGy
Absorbed organ dose Kidneys (Patient 1): 0.0137 mGy
Absorbed organ dose LLI wall (Patient 1): 0.0037 mGy
Absorbed organ dose Liver (Patient 1): 0.0066 mGy
Absorbed organ dose Lungs (Patient 1): 0.0051 mGy
Absorbed organ dose Muscle (Patient 1): 0.0028 mGy
Absorbed organ dose Osteogenic cells (Patient 1): 0.0099 mGy
Absorbed organ dose Ovaries (Patient 1): 0.0040 mGy
Absorbed organ dose Pancreas (Patient 1): 0.0055 mGy
Absorbed organ dose Red marrow (Patient 1): 0.0065 mGy
Absorbed organ dose Skin (Patient 1): 0.0018 mGy
Absorbed organ dose Small intestine (Patient 1): 0.0041 mGy
Absorbed organ dose Spleen (Patient 1): 0.0161 mGy
Absorbed organ dose Stomach wall (Patient 1): 0.0040 mGy
Absorbed organ dose Testes (Patient 1): 0.0023 mGy
Absorbed organ dose Thymus (Patient 1): 0.0030 mGy
Absorbed organ dose Thyroid (Patient 1): 0.0028 mGy
Absorbed organ dose Total body (Patient 1): 0.0028 mGy
Absorbed organ dose ULI wall (Patient 1): 0.0040 mGy
Absorbed organ dose Urinary bladder wall (Patient 1): 0.0033 mGy
Absorbed organ dose Uterus (Patient 1): 0.0038 mGy
Absorbed organ dose Adrenals (Patient 2): 0.0078 mGy
Absorbed organ dose Brain (Patient 2): 0.0032 mGy
Absorbed organ dose Breast (Patient 2): 0.0028 mGy
Absorbed organ dose Gallbladder wall (Patient 2): 0.0068 mGy
Absorbed organ dose Heart wall (Patient 2): 0.0049 mGy
Absorbed organ dose Kidneys (Patient 2): 0.0117 mGy
Absorbed organ dose LLI wall (Patient 2): 0.0053 mGy
Absorbed organ dose Liver (Patient 2): 0.0087 mGy
Absorbed organ dose Lungs (Patient 2): 0.0079 mGy
Absorbed organ dose Muscle (Patient 2): 0.0038 mGy
Absorbed organ dose Osteogenic cells (Patient 2): 0.0162 mGy
Absorbed organ dose Ovaries (Patient 2): 0.0054 mGy
Absorbed organ dose Pancreas (Patient 2): 0.0083 mGy
Absorbed organ dose Red marrow (Patient 2): 0.0135 mGy
Absorbed organ dose Skin (Patient 2): 0.0024 mGy
Absorbed organ dose Small intestine (Patient 2): 0.0053 mGy
Absorbed organ dose Spleen (Patient 2): 0.0238 mGy
Absorbed organ dose Stomach wall (Patient 2): 0.0057 mGy
Absorbed organ dose Thymus (Patient 2): 0.0040 mGy
Absorbed organ dose Thyroid (Patient 2): 0.0032 mGy
Absorbed organ dose Total body (Patient 2): 0.0039 mGy
Absorbed organ dose ULI wall (Patient 2): 0.0055 mGy
Absorbed organ dose Urinary bladder wall (Patient 2): 0.0043 mGy
Absorbed organ dose Uterus (Patient 2): 0.0049 mGy
Absorbed organ dose Adrenals (Patient 3): 0.0083 mGy
Absorbed organ dose Brain (Patient 3): 0.0039 mGy
Absorbed organ dose Breast (Patient 3): 0.0032 mGy
Absorbed organ dose Gallbladder wall (Patient 3): 0.0073 mGy
Absorbed organ dose Heart wall (Patient 3): 0.0054 mGy
Absorbed organ dose Kidneys (Patient 3): 0.0128 mGy
Absorbed organ dose LLI wall (Patient 3): 0.0062 mGy
Absorbed organ dose Liver (Patient 3): 0.0089 mGy
Absorbed organ dose Lungs (Patient 3): 0.0075 mGy
Absorbed organ dose Muscle (Patient 3): 0.0044 mGy
Absorbed organ dose Osteogenic cells (Patient 3): 0.0184 mGy
Absorbed organ dose Ovaries (Patient 3): 0.0064 mGy
Absorbed organ dose Pancreas (Patient 3): 0.0092 mGy
Absorbed organ dose Red marrow (Patient 3): 0.0123 mGy
Absorbed organ dose Skin (Patient 3): 0.0027 mGy
Absorbed organ dose Small intestine (Patient 3): 0.0062 mGy
Absorbed organ dose Spleen (Patient 3): 0.0202 mGy
Absorbed organ dose Stomach wall (Patient 3): 0.0066 mGy
Absorbed organ dose Thymus (Patient 3): 0.0045 mGy
Absorbed organ dose Thyroid (Patient 3): 0.0039 mGy
Absorbed organ dose Total body (Patient 3): 0.0052 mGy
Absorbed organ dose ULI wall (Patient 3): 0.0063 mGy
Absorbed organ dose Urinary bladder wall (Patient 3): 0.0053 mGy
Absorbed organ dose Uterus (Patient 3): 0.0059 mGy
Absorbed organ dose Adrenals (Patient 4): 0.00524 mGy
Absorbed organ dose Brain (Patient 4): 0.00278 mGy
Absorbed organ dose Breast (Patient 4): 0.00227 mGy
Absorbed organ dose Gallbladder wall (Patient 4): 0.00502 mGy
Absorbed organ dose Heart wall (Patient 4): 0.00317 mGy
Absorbed organ dose Kidneys (Patient 4): 0.00936 mGy
Absorbed organ dose LLI wall (Patient 4): 0.00428 mGy
Absorbed organ dose Liver (Patient 4): 0.00636 mGy
Absorbed organ dose Lungs (Patient 4): 0.00337 mGy
Absorbed organ dose Muscle (Patient 4): 0.00318 mGy
Absorbed organ dose Osteogenic cells (Patient 4): 0.011 mGy
Absorbed organ dose Ovaries (Patient 4): 0.00451 mGy
Absorbed organ dose Pancreas (Patient 4): 0.00571 mGy
Absorbed organ dose Red marrow (Patient 4): 0.00617 mGy
Absorbed organ dose Skin (Patient 4): 0.00209 mGy
Absorbed organ dose Small intestine (Patient 4): 0.00455 mGy
Absorbed organ dose Spleen (Patient 4): 0.0188 mGy
Absorbed organ dose Stomach wall (Patient 4): 0.00441 mGy
Absorbed organ dose Testes (Patient 4): 0.00282 mGy
Absorbed organ dose Thymus (Patient 4): 0.00324 mGy
Absorbed organ dose Thyroid (Patient 4): 0.00329 mGy
Absorbed organ dose Total body (Patient 4): 0.00351 mGy
Absorbed organ dose ULI wall (Patient 4): 0.00441 mGy
Absorbed organ dose Urinary bladder wall (Patient 4): 0.00385 mGy
Absorbed organ dose Uterus (Patient 4): 0.0044 mGy
Absorbed organ dose Adrenals (Range Max): 0.0083 mGy
Absorbed organ dose Brain (Range Max): 0.0039 mGy
Absorbed organ dose Breast (Range Max): 0.0032 mGy
Absorbed organ dose Gallbladder wall (Range Max): 0.0073 mGy
Absorbed organ dose Heart wall (Range Max): 0.0054 mGy
Absorbed organ dose Kidneys (Range Max): 0.0137 mGy
Absorbed organ dose LLI wall (Range Max): 0.0062 mGy
Absorbed organ dose Liver (Range Max): 0.0089 mGy
Absorbed organ dose Lungs (Range Max): 0.0079 mGy
Absorbed organ dose Muscle (Range Max): 0.0044 mGy
Absorbed organ dose Osteogenic cells (Range Max): 0.0184 mGy
Absorbed organ dose Ovaries (Range Max): 0.0064 mGy
Absorbed organ dose Pancreas (Range Max): 0.0092 mGy
Absorbed organ dose Red marrow (Range Max): 0.0135 mGy
Absorbed organ dose Skin (Range Max): 0.0027 mGy
Absorbed organ dose Small intestine (Range Max): 0.0062 mGy
Absorbed organ dose Spleen (Range Max): 0.0238 mGy
Absorbed organ dose Stomach wall (Range Max): 0.0066 mGy
Absorbed organ dose Testes (Range Max): 0.0028 mGy
Absorbed organ dose Thymus (Range Max): 0.0045 mGy
Absorbed organ dose Thyroid (Range Max): 0.0039 mGy
Absorbed organ dose Total body (Range Max): 0.0052 mGy
Absorbed organ dose ULI wall (Range Max): 0.0063 mGy
Absorbed organ dose Urinary bladder wall (Range Max): 0.0053 mGy
Absorbed organ dose Uterus (Range Max): 0.0059 mGy
Absorbed organ dose Adrenals (Range Min): 0.0052 mGy
Absorbed organ dose Brain (Range Min): 0.0023 mGy
Absorbed organ dose Breast (Range Min): 0.0021 mGy
Absorbed organ dose Gallbladder wall (Range Min): 0.0050 mGy
Absorbed organ dose Heart wall (Range Min): 0.0032 mGy
Absorbed organ dose Kidneys (Range Min): 0.0094 mGy
Absorbed organ dose LLI wall (Range Min): 0.0037 mGy
Absorbed organ dose Liver (Range Min): 0.0064 mGy
Absorbed organ dose Lungs (Range Min): 0.0034 mGy
Absorbed organ dose Muscle (Range Min): 0.0028 mGy
Absorbed organ dose Osteogenic cells (Range Min): 0.0099 mGy
Absorbed organ dose Ovaries (Range Min): 0.0040 mGy
Absorbed organ dose Pancreas (Range Min): 0.0055 mGy
Absorbed organ dose Red marrow (Range Min): 0.0062 mGy
Absorbed organ dose Skin (Range Min): 0.0018 mGy
Absorbed organ dose Small intestine (Range Min): 0.0041 mGy
Absorbed organ dose Spleen (Range Min): 0.0161 mGy
Absorbed organ dose Stomach wall (Range Min): 0.0040 mGy
Absorbed organ dose Testes (Range Min): 0.0023 mGy
Absorbed organ dose Thymus (Range Min): 0.0030 mGy
Absorbed organ dose Thyroid (Range Min): 0.0028 mGy
Absorbed organ dose Total body (Range Min): 0.0028 mGy
Absorbed organ dose ULI wall (Range Min): 0.0040 mGy
Absorbed organ dose Urinary bladder wall (Range Min): 0.0033 mGy
Absorbed organ dose Uterus (Range Min): 0.0038 mGy
effective dose, range (per 500 MBq): 2.1–3.4 mSv
effective dose, median (standard activity of 500 MBq): 2.7 mSv
